# Source: ChEMBL document CHEMBL5465560, “Selectivity Literature for EUbOPEN Chemogenomic Library” (2024)
# Key:
# [1] = biological target: Myosin-IIIa (Homo sapiens) (UniProt Q8NEV4); assay: Selectivity interaction (KinomeScan (DiscoverX)) EUB0000695a MYO3A; settings: at 100 nM
# [2] = biological target: T1, TGF-beta receptor type-1 (Homo sapiens) (UniProt P36897); assay: Selectivity interaction (KinomeScan (DiscoverX)) EUB0000695a TGFBR1; settings: at 100 nM
# T1 sequence (whole entry): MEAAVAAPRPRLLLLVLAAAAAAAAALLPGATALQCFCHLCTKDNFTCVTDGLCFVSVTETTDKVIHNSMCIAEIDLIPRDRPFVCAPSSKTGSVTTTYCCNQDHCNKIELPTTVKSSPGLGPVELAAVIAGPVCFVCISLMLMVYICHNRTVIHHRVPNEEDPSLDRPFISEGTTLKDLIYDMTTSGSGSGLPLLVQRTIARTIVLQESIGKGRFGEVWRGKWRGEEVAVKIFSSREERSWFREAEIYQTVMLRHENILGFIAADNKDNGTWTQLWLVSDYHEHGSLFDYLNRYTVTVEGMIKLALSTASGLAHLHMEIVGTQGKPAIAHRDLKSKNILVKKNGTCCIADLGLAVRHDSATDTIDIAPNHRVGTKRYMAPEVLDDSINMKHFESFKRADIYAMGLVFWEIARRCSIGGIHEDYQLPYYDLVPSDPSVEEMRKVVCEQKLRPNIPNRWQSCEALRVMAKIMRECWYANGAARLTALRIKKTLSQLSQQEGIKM
# [3] = biological target: Tyrosine-protein kinase ABL1 (Homo sapiens, UniProt P00519); settings: at 10 µM
# [4] = biological target: Serine/threonine-protein kinase 32B (Homo sapiens) (UniProt Q9NY57); assay: Selectivity interaction (KinomeScan (DiscoverX)) EUB0001049a STK32B; settings: at 1 µM
# [5] = biological target: Fibroblast growth factor receptor 2 (Homo sapiens) (UniProt P21802); assay: Selectivity interaction (Upstate Kinase Profiler service (Millipore)) EUB0000056c FGFR2; settings: at 1 µM
# [6] = biological target: Interferon-induced, double-stranded RNA-activated protein kinase (Homo sapiens) (UniProt P19525); assay: Selectivity interaction (ProQinase) EUB0000171b EIF2AK2
# [7] = biological target: eIF-2-alpha kinase GCN2 (Homo sapiens) (UniProt Q9P2K8); assay: Selectivity interaction (ActivX KiNativ screen (ex vivo kinase selectivity in human PBMCs)) EUB0001619a EIF2AK4; type: cell-based; settings: PBMC, at 1 µM
# [8] = biological target: Mitogen-activated protein kinase kinase kinase kinase 1 (Homo sapiens) (UniProt Q92918); assay: Selectivity interaction (ActivX KiNativ screen (ex vivo kinase selectivity in human PBMCs)) EUB0001619a MAP4K1; type: cell-based; settings: PBMC, at 1 µM
# [9] = biological target: T2, Aurora kinase A (Homo sapiens) (UniProt O14965); assay: Selectivity interaction (ActivX KiNativ screen (kinase selectivity in THP-1 cell lysates)) EUB0000639a STK6; type: subcellular; settings: lysate, at 0.04 µM
# T2 sequence (whole entry): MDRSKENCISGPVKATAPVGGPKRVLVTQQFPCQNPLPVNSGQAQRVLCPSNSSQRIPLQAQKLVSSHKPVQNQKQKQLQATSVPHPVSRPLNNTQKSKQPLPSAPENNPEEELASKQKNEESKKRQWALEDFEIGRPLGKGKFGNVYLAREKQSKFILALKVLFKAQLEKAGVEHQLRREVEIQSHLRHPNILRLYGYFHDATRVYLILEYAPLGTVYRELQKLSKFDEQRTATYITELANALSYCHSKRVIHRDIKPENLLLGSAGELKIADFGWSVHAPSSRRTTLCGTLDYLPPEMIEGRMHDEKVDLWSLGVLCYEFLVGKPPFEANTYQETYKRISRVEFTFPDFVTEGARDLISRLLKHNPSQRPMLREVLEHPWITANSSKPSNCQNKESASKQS
# [10] = biological target: Non-receptor tyrosine-protein kinase TYK2 (Homo sapiens, UniProt P29597); assay: Selectivity interaction (KinomeScan (DiscoverX)) EUB0000655a TYK2; settings: at 10 µM
# [11] = Selectivity interaction (KinomeScan (DiscoverX)) EUB0000092b CDPK1; settings: at 10 µM
# [12] = biological target: T3, Ephrin type-B receptor 4 (Homo sapiens) (UniProt P54760); assay: Selectivity interaction (Ambit KINOMEscan and KiNATiv profiling in Jurkat cells) EUB0000090b EPHB4; type: cell-based; settings: at 1 µM
# T3 sequence (whole entry): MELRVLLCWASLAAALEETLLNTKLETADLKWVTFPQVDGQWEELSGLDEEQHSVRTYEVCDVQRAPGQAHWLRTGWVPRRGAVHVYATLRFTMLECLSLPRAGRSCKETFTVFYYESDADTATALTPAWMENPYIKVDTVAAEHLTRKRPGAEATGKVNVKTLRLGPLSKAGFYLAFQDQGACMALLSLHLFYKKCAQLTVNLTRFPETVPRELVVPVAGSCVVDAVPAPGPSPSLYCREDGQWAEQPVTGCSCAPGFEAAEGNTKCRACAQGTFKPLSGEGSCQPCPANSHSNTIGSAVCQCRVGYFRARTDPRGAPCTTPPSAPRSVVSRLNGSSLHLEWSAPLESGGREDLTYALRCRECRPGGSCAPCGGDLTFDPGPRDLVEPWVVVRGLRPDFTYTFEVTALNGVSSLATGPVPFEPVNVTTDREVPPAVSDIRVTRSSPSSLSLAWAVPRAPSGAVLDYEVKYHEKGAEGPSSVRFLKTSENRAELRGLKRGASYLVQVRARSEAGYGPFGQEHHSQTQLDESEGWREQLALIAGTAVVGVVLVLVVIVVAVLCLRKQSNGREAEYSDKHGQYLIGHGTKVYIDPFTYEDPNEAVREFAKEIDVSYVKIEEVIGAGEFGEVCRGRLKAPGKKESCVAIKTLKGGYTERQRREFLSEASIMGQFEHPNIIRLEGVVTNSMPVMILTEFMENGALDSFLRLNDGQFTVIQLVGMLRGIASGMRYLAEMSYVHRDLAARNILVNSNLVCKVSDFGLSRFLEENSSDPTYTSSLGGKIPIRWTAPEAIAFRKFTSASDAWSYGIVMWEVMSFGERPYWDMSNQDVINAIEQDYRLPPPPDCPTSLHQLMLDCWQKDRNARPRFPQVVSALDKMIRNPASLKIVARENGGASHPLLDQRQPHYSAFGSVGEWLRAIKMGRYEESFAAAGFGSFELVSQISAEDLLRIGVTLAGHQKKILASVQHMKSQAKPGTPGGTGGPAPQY
# Interferon-induced, double-stranded RNA-activated protein kinase (Homo sapiens), sequence (P19525 whole entry): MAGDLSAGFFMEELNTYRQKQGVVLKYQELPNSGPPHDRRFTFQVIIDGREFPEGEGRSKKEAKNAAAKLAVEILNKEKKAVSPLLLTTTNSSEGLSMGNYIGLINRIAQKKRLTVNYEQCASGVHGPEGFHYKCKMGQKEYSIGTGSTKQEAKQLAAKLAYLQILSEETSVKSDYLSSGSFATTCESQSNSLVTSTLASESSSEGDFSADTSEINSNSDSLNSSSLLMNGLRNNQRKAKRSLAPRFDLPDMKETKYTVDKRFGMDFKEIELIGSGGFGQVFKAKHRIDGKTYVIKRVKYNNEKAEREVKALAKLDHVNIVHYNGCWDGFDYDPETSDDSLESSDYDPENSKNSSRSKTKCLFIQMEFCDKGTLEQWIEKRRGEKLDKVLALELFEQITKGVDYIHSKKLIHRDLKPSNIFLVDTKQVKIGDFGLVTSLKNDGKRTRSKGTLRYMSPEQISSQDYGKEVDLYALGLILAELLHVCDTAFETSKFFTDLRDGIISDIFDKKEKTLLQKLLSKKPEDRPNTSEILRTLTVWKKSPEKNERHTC
# eIF-2-alpha kinase GCN2 (Homo sapiens), sequence (Q9P2K8 whole entry): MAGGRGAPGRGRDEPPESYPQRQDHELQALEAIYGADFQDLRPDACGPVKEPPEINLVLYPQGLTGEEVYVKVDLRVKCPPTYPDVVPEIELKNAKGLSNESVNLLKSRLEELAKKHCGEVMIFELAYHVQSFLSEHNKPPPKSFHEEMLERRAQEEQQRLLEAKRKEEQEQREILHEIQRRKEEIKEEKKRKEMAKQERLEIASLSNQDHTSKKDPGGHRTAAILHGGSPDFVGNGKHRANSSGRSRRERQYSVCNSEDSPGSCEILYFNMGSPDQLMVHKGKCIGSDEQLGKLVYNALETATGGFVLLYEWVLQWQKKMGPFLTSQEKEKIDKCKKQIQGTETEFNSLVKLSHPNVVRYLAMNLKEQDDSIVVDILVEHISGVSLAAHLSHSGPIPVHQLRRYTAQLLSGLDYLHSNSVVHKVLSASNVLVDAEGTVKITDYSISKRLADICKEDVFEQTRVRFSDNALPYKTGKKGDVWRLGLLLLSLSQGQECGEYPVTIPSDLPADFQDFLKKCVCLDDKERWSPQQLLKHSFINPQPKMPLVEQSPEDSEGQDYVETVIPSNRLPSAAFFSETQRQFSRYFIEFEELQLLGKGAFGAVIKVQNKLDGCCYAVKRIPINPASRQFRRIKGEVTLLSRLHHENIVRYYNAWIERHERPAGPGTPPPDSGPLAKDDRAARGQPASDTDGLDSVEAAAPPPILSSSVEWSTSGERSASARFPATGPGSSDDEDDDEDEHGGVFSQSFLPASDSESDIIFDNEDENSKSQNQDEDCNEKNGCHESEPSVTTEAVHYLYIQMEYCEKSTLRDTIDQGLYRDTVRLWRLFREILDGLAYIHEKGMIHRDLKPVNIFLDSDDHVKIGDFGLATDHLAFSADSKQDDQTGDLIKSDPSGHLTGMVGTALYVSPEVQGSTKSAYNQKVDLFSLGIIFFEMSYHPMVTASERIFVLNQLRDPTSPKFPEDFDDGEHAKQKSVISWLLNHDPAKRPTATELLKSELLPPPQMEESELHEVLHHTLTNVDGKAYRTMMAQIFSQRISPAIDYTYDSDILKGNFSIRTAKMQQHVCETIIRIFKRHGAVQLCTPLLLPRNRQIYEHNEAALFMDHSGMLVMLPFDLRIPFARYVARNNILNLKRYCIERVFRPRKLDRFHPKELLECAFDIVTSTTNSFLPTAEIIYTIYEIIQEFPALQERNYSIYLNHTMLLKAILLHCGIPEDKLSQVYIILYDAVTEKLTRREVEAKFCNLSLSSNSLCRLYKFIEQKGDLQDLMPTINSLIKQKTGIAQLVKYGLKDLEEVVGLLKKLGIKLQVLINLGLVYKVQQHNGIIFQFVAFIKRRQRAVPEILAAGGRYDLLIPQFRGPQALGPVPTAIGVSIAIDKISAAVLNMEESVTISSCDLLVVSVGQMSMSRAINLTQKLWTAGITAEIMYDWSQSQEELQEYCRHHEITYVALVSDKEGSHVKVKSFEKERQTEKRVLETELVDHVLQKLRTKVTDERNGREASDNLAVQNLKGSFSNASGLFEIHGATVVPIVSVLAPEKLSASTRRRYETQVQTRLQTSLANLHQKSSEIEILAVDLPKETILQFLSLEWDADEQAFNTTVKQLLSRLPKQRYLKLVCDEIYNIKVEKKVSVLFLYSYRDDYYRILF
# Myosin-IIIa (Homo sapiens), sequence (Q8NEV4 whole entry): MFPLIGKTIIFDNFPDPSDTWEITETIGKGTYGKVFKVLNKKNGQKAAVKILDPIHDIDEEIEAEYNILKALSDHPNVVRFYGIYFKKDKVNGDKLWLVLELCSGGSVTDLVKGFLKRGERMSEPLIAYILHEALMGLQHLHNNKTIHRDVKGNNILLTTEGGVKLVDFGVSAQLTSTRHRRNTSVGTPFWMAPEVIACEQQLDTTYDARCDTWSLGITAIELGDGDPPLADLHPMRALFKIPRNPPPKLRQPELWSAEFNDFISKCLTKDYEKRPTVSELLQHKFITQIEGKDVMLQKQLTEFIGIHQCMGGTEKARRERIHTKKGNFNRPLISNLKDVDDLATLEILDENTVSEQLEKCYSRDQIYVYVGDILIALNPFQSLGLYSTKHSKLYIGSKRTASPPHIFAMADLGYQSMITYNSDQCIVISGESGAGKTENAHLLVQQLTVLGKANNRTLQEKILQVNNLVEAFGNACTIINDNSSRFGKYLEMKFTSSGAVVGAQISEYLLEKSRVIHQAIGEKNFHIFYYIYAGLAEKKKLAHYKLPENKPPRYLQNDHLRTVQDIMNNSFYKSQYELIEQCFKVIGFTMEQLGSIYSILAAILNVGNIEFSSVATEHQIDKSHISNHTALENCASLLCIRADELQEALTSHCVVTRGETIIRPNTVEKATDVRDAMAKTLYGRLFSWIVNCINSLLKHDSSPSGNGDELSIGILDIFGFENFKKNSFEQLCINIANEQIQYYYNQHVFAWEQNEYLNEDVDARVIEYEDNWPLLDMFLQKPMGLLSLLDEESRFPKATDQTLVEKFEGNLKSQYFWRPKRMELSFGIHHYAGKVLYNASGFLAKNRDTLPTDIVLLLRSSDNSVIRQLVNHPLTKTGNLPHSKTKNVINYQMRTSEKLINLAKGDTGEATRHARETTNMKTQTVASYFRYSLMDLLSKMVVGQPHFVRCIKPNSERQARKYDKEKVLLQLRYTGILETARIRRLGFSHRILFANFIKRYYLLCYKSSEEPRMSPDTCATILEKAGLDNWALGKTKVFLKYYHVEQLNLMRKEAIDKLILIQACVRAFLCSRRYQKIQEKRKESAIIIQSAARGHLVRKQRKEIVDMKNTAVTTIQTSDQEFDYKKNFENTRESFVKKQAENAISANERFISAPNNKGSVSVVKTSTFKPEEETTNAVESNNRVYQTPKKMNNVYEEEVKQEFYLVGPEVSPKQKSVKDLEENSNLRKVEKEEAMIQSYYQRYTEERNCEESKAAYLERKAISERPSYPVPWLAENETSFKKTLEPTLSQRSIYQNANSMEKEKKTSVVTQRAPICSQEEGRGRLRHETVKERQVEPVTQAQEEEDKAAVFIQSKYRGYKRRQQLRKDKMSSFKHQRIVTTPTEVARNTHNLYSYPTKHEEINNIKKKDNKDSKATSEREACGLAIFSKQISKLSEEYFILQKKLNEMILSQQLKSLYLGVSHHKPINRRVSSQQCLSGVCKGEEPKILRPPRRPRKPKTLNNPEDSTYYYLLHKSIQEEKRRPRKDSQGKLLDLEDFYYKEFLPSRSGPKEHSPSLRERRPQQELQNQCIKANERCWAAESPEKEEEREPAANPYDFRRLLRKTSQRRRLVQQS
# Non-receptor tyrosine-protein kinase TYK2, sequence (P29597 whole entry): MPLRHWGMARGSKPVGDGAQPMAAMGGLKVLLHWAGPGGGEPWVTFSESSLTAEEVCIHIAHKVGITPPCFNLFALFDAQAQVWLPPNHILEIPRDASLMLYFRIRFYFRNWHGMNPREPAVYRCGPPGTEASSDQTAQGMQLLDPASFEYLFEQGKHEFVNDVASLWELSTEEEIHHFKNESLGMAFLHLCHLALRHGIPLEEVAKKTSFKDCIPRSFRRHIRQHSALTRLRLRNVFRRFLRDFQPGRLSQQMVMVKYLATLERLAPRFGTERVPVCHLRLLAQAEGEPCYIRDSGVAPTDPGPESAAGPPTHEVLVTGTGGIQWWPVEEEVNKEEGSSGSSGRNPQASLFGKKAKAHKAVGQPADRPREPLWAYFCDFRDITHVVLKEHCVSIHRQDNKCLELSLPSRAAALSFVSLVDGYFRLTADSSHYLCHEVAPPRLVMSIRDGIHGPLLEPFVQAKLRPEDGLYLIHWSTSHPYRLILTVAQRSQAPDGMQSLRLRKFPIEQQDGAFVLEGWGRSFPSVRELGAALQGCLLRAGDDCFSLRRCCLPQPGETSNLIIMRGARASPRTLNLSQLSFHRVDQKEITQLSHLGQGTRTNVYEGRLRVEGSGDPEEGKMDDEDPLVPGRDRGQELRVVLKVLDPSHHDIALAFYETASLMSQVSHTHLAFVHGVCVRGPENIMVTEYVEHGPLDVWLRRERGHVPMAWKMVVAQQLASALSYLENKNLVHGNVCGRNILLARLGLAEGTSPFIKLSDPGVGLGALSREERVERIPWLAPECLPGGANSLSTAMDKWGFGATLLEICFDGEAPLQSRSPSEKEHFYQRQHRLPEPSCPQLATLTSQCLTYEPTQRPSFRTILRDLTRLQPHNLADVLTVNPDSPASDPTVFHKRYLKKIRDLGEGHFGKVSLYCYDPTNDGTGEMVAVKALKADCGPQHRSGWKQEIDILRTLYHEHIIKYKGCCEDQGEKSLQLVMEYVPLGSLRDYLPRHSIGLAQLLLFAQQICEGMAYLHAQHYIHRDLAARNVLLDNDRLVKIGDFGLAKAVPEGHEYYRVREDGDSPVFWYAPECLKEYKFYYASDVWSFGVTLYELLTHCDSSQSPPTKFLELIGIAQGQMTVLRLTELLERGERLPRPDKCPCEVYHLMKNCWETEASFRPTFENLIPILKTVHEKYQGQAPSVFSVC
smiles,measurement,setting,value
Cc1cc(F)c(C(=O)Nc2cccc(-c3nncn3C(C)C)n2)cc1-n1cnc(C2CC2)c1,% of control,[1],100%
same,% of control,[2],90%
Cc1cc([C@@H](C)Nc2ccccc2C(=O)O)c2nc(N3CCOCC3)cc(=O)n2c1 [AZD-6482],% of control,[3],100%
COc1cc(Nc2nc(C)cc(-c3cnn4nc(OC)ccc34)n2)cc(C(F)(F)F)c1,% of control,[4],100%
Cc1ccc(-c2ccc3c(ccc4sc5c(c43)NC[C@@H](C)NC5=O)n2)cn1,% of inhibition,[5],-10%
C=CC(=O)Nc1cccc(C(=O)Nc2ccc(Nc3cc(-c4[nH]c(SC)nc4C)ccn3)cc2)c1,% of control,[6]; at 1 µM,84%
same,% of control,[6]; at 5 µM,55%
N#Cc1cccc(-c2c[nH]c3ncnc(N4CCOCC4)c23)c1,% of inhibition,[7],1%
same,% of inhibition,[8],26%
CC[C@@H]1[C@H](F)C(=O)N[C@@H]1COc1nccc2cc(C(N)=O)c(OC)cc12 [ZIMLOVISERTIB],% of inhibition,[9],-6.4%
CN(C)CCOc1ccc(-c2nc(-c3ccncc3)c(-c3ccc4c(c3)CC/C4=N\O)[nH]2)cc1,% of control,[10],100%
CCC(=O)N1CCN(c2ccc(-n3c(=O)ccc4cnc5ccc(-c6cnc7ccccc7c6)cc5c43)cc2C(F)(F)F)CC1,% of control,[11],36%
CN(C)C/C=C/C(=O)Nc1ccc(C(=O)N2CCCC(Nc3ncc(Cl)c(-c4c[nH]c5ccccc45)n3)C2)cc1 (stereo not drawn),% of control,[12],94%
